Laboratory results as given in patent US20040077031A1, “Novel methionine aminopeptidase-2 and uses thereof” (priority 2002, published 2004).
pIC50: −log10 of the molar value. “Also recorded” adds a separate entry of the source. Read-outs that look alike come from different tables or passages of the source.

What was measured:
[1] = target: T1, MetAP1 (Homo sapiens, UniProt P53582); test: Metal dependence and baseline activity of MetAP1, chromogenic assay; format: biochemical
T1 construct: histidine tag (N); gp67 secretion signal of vector pAcGP67B (N); made in house; host or cells: baculovirus-infected Sf9 insect cells, secreted into medium
From the text: (§1) A coupled-enzyme chromogenic assay was used to measure methionine aminopeptidase activity by monitoring the production of free methionine cleaved from specific peptide substrates containing methionine. […] Other peptides can be used including dimeric, tetrameric, pentameric, hexameric, heptameric, nonameric, decameric, and undecameric peptides. […] Free methionine was oxidized with L-amino acid oxidase (AAO, Sigma Catalog No. A-9378) and horseradish peroxidase (HRP, Sigma Catalog No. P-8451). Oxidation by AAO of free methionine generates hydrogen peroxide (H2O2) which then reacts with HRP oxidizing 0-dianisidine (Sigma Catalog No. D-1954) or 10-acetyl-3,7-dihydrophenoxazine (Amplex Red, Molecular Probes). Assays were performed in 96-well microtiter plates. Enzyme preparations were diluted in assay buffer (50 mM HEPES, pH 7.4, 100 mM NaCl), and 10 μl of the enzymes were introduced into each well. A mixture (90 μl) of 0.1 mg/ml L-amino acid oxidase, 0.1 mg/ml of horseradish peroxidase, 0.1 mg/ml ortho-dianisidine, and 0.5 mM peptide substrate was added to each cell. The reactions were carried out at room temperature, and the absorbance at 450 nanometer (A450) was measured every 20 seconds over a period of twenty minutes using an automatic plate reader (Molecular Devices, Calif., USA). The rate in mOD/min, calculated for each well, was used to represent MetAP1 or MetAP2 activity. Under this assay condition, the methionine cleaved from peptide substrate by MetAP1 or MetAP2 was instantaneously oxidized to generate a final A450 readout.
Both MetAP1 and MetAP2 need the presence of a metal in the active site for optimal activity, and have previously been classified as Co^2+, metalloproteases (Arfin et al, 1995; Li and Chang, 1996). […] Calcium chloride (Ca^2+), cobalt chloride (Co^2+), cupric chloride (Cu^2+), ferrous chloride (Fe^2+), magnesium chloride (Mg^2+), manganese chloride (Mn^2+), nickel chloride (Ni^2+), or zinc chloride (Zn^2+) was included in each assay at final concentrations of 0, 0.1, 1, 10, 100, 1000, and 10,000 μM in the assay buffer (50 mM HEPES, pH 7.4, 100 mM NaCl).

[2] = target: T2, MetAP2 (Homo sapiens, UniProt P50579); test: Metal dependence and baseline activity of MetAP2, chromogenic assay; format: biochemical
T2 construct: gp67 secretion signal of vector pAcGP67B (N); made in house; host or cells: baculovirus-infected Sf9 insect cells, secreted into medium
From the text: as §1
Both MetAP1 and MetAP2 need the presence of a metal in the active site for optimal activity, and have previously been classified as Co^2+, metalloproteases (Arfin et al, 1995; Li and Chang, 1996). […]

[3] = target: T2, MetAP2; test: Kinetic constants of MetAP2 with Mn2+ on peptide substrates (chromogenic assay); format: biochemical; conditions: MetAP2 with 100 μM Mn2+
From the text: as §1, with “A mixture (90 μl) of 0.1 mg/ml L-amino acid oxidase, 0.1 mg/ml of horseradish peroxidase, 0.1 mg/ml ortho-dianisidine, and 0.5 mM peptide substrate was added to each cell.” left out

[4] = system: HMVEC cells; test: Penetration and accumulation into HMVEC cells; format: in vitro ADME, human
[5] = system: HMVEC; test: 3-day HMVEC proliferation assay; format: cell-based, human
Method: (§2) The cellular activity of A-357300 was tested in HMVEC grown in complete EGM2 medium enriched with a combination of growth factors (vascular endothelial growth factor (VEGF), basic fibroblast growth factor (bFGF), epidermal growth factor (EGF), and insulin-like growth factor (IGF)) and fetal bovine serum. […] To determine that the cellular effect of A-357300 was through inhibition of cellular MetAp2, HMVEC were incubated with the MetAP2 inhibitors fumagillin and A-357300 for 4 hours before ^35S-methionine was added to the culture. After another 2-hour incubation, cellular proteins were collected and applied to a reactive dye-agarose column as described in Example 6. MetAP2 specific substrates (GAPDH and other cellular proteins with a N-terminal cleavable initiator methionine) were captured on the agarose column.

[6] = target: T2, MetAP2; test: MetAP2 enzyme inhibition, coupled-enzyme chromogenic assay; format: biochemical
From the text: as §1, §2

[7] = target: T3, cellular MetAP2 (Homo sapiens, UniProt P50579); test: Cellular MetAP2 activity (unprocessed initiator methionine of cellular proteins) in HMVEC; format: cell-based; conditions: for inhibition of cellular MetAP2 activity / initiator methionine processing: HMVEC
T3 construct: host or cells: HMVEC
Method: Human microvascular endothelial cells (HMVEC) (Clonetics, San Diego, Calif.) were grown in EGM2 recommended medium (Wang et al., J. Cell. Biochem. 77: 465-473, 2000). Cells in T75 flasks at approximately 70% confluence were changed to 15 ml EGLM (labeling medium, Clonetics) without added methionine. Fumagillin (Sigma Catalog No. F-6771) or A310840 (Abbott Laboratories, Abbott Park, Ill.) was added to the culture to final concentrations of 1 nM (fumagillin) or 0.5, 2 and 5 μM (A310840). The cells and inhibitors were incubated for four hours before adding 0.5 mCi/flask of ^35S-methionine (Amersham, Piscataway, N.J.). The cells were allowed further incubation for two hours, washed and lysed in 1 ml M-per (Pierce, Rockford, Ill.) buffer. The lysate samples having the same amount of radioactivity were loaded to a 0.5 ml column of Reactive Blue 72-agarose (Sigma, St. Louis, Mo.) equilibrated with 20 mM Tris/HCl, pH 7.5, 150 mM NaCl. The columns were washed with 30 ml equilibrium buffer, and then incubated with 3 ml of 100 nM MetAP2 in equilibration/washing buffer for 20 minutes at room temperature. The MetAP2 cleaved radioactivity (unprocessed initiator methionine) was then counted.
as §2

[8] = system: MiaPaCa2; test: Cell proliferation inhibition; format: cell-based; conditions: Homo sapiens, MIA PaCa-2, Tumor cells, read-out: IC50s of proliferation inhibition
From the text: (§3) Table 2 summarizes the selectivity of MetAP2 inhibitors in inhibiting the proliferation of endothelial cells and certain tumor cells. Proliferation of endothelial cells of various origins, normal human primary cells pf non-EC type, and tumor cell lines were studied with MetAP2 inhibitors A-357300 and fumagillin. […] Most tumor cells were […] while some were resistant.

[9] = system: A549; test: Cell proliferation inhibition; format: cell-based; conditions: Homo sapiens, Tumor cells, read-out: IC50s of proliferation inhibition
From the text: as §3

[10] = system: T-lymphocytes; test: Cell proliferation inhibition; format: cell-based; conditions: T-lymphocyte, Normal human primary cells, read-out: IC50s of proliferation inhibition
From the text: as §3

[11] = system: CHP-134; test: Cell proliferation inhibition; format: cell-based; conditions: Homo sapiens, Tumor cells, read-out: IC50s of proliferation inhibition
From the text: as §3

[12] = system: Human CEC; test: Cell proliferation inhibition; format: cell-based; conditions: EC, read-out: IC50s of proliferation inhibition
From the text: as §3

[13] = system: Astrocytes; test: Cell proliferation inhibition; format: cell-based; conditions: Astrocyte, Normal human primary cells, read-out: IC50s of proliferation inhibition
From the text: as §3

[14] = system: MCF7; test: Cell proliferation inhibition; format: cell-based; conditions: Homo sapiens, Tumor cells, read-out: IC50s of proliferation inhibition
From the text: as §3

[15] = system: Mammary Epithelial cells; test: Cell proliferation inhibition; format: cell-based; conditions: Normal human primary cells, read-out: IC50s of proliferation inhibition
From the text: as §3

[16] = system: Fibroblasts; test: Cell proliferation inhibition; format: cell-based; conditions: Fibroblast, Normal human primary cells, read-out: IC50s of proliferation inhibition
From the text: as §3

[17] = system: DLD-1; test: Cell proliferation inhibition; format: cell-based; conditions: Homo sapiens, Tumor cells, read-out: IC50s of proliferation inhibition
From the text: as §3

[18] = system: Prostate Epithelial cells; test: Cell proliferation inhibition; format: cell-based; conditions: Normal human primary cells, read-out: IC50s of proliferation inhibition
From the text: as §3

[19] = system: MDA-435-LM; test: Cell proliferation inhibition; format: cell-based; conditions: Homo sapiens, Tumor cells, read-out: IC50s of proliferation inhibition
From the text: as §3

[20] = system: HT-1080; test: Cell proliferation inhibition; format: cell-based; conditions: Homo sapiens, Tumor cells, read-out: IC50s of proliferation inhibition
From the text: as §3

[21] = system: BAEC (bovine); test: Cell proliferation inhibition; format: cell-based; conditions: Bos taurus, EC, read-out: IC50s of proliferation inhibition
From the text: as §3

[22] = system: HCT-15; test: Cell proliferation inhibition; format: cell-based; conditions: Homo sapiens, Tumor cells, read-out: IC50s of proliferation inhibition
From the text: as §3

[23] = system: PC3; test: Cell proliferation inhibition; format: cell-based; conditions: Homo sapiens, PC-3, Tumor cells, read-out: IC50s of proliferation inhibition
From the text: as §3

[24] = system: BEND3 (mouse); test: Cell proliferation inhibition; format: cell-based; conditions: EC, read-out: IC50s of proliferation inhibition
From the text: as §3

[25] = system: NCI-H460; test: Cell proliferation inhibition; format: cell-based; conditions: Homo sapiens, Tumor cells, read-out: IC50s of proliferation inhibition
From the text: as §3

[26] = system: MDA-MB; test: Cell proliferation inhibition; format: cell-based; conditions: Tumor cells, read-out: IC50s of proliferation inhibition
From the text: as §3

[27] = system: HMVEC/HUVEC; test: Cell proliferation inhibition; format: cell-based; conditions: Homo sapiens, read-out: IC50s of proliferation inhibition
Method: as §2

[28] = target: T1, MetAP1; test: Metal dependence of MetAP1 in the presence of glutathione, radioactive methionine assay; format: biochemical; conditions: 5 mM glutathione
Method: Fmoc-L-Lys(biotinyl) —OH was purchased from Bachem (King of Prussia, Pa.). Fmoc-L-[methyl-^3H]Methionine was synthesized by reacting Fmoc-Cl with L-[methyl-^3H]Methionine (Amersham, Piscataway, N.J.) in a 1:1 Dioxane/10% Na2CO3(aq) mixed solvent. The peptides were deprotected and cleaved from the resin using a trifluoroacetic acid solution containing water, thioanisole, and ethanedithiol (900 μl:25 μl:50 μl:25 μl) as scavengers. The peptides were purified by HPLC using a Waters C18 Symmetry column (7.8×300 mm, 7 μm; Milford, Mass.). […] The resulting amount of cleaved radioactive methionine is directly proportional to the catalytic activity of the MetAP. […] (See U.S. Pat. No. 6,156,495 for a discussion of labels and uses thereof). Conversely, anything impairing the catalytic activity of MetAP (e.g., inhibitory agents, wrong metal cofactor) will result in a decreased amount of free radioactive methionine.
To study the effect of metal ions in the presence of physiologically relevant reduced glutathione (GSH) (Walker and Bradshaw, 1998), the assay measuring radioactive methionine release from a peptide described in Example 3.2 was used because GSH affected the coupled enzyme chromogenic assay.

T3 sequence (P50579 whole entry): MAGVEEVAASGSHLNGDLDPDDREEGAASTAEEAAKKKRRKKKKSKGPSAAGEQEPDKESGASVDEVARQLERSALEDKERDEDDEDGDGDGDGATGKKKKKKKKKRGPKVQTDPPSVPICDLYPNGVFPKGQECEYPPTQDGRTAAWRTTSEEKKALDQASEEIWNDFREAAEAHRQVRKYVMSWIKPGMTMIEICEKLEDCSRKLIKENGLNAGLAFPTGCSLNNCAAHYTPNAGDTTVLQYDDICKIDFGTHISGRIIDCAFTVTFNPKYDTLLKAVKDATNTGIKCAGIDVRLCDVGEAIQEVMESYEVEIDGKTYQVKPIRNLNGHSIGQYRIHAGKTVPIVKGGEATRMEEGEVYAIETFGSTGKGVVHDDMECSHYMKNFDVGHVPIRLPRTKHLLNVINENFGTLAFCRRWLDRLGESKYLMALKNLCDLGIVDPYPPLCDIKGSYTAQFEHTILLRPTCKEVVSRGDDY
T2 sequence (P50579 whole entry): as above

manganese chloride [Mn^2+]
stimulation of MetAP1 activity ([1]; MAS substrate): about 2 fold | stimulation of MetAP1 activity ([1]; MGAQFSKT substrate): 3 fold | metal concentration of maximum effect on MetAP2 [2]: 1 µM | concentration that fully stimulated human MetAP2 activity ([2]; in the presence and absence of physiological concentrations of GSH): 1 µM

MGKVKVG
Km [3]: 215 µM | kcat [3]: 9.563 s⁻¹

c1ccc2cc(CSc3nnc[nH]3)ccc2c1 [A310840, 3-((2-naphthylmethyl)sulfanyl)-4H-1,2,4-triazole]
penetration and accumulation into HMVEC cells [4]: able to penetrate and accumulate | inhibition of HMVEC cell proliferation [5]: did not inhibit | inhibition of MetAP2-Mn2+ ([6]; Mn2+ as metal cofactor): did not inhibit | fold less active as inhibitor of MetAP2 with Mn2+ ([6]; Mn2+ form versus baseline, Co2+ and other metal forms): 1000 fold | pIC50 ([6]; other metal ions including Zn2+, Fe2+, and Ni2+, read-out: IC50 on MetAP2 with many other metal ions): 6.93 to 8.00 | pIC50 ([6]; without added metals, read-out: IC50 on the baseline activity of MetAP2): 7.22 | inhibition of cellular MetAP2 activity / initiator methionine processing [7]: did not inhibit | processing of protein initiator methionine in HMVEC ([7]; treatment up to 10 μM): not blocked

CO[C@@H]1[C@H](OC(=O)/C=C/C=C/C=C/C=C/C(=O)O)CC[C@]2(CO2)[C@H]1[C@@]1(C)O[C@@H]1CC=C(C)C [Fumagillin, fumagillin]
pIC50 [8]: < 6.00 | pIC50 [9]: 8.70 | pIC50 [10]: 5.08 | pIC50 [11]: 9.00 | pIC50 [12]: 9.00 | pIC50 [13]: < 6.00 | pIC50 [14]: < 6.00 | pIC50 [15]: < 6.00 | pIC50 [16]: < 6.00 | pIC50 [17]: 8.70 | pIC50 [18]: < 6.00 | pIC50 [19]: < 6.00 | pIC50 [20]: 9.00 | pIC50 [21]: 9.00 | pIC50 [22]: 8.52 | pIC50 [23]: < 6.00 | pIC50 [24]: 8.70 | pIC50 [25]: 8.52 | pIC50 [26]: < 6.00 | inhibition of HMVEC cell proliferation ([5]; 1 nM): inhibition of cell proliferation | inhibition of MetAP2 with all metal ions ([6]; all metal ions): inhibited MetAP2 with all metal ions | pIC50 [27]: 9.00 | unprocessed N-terminal initiator methionine of cellular proteins in HMVEC ([7]; 1 nM): increased; also recorded: accumulation of unprocessed N-terminal methionine | inhibition of cellular MetAP2 activity / initiator methionine processing [7]: inhibition; also recorded: able to block

[Cl-].[Cl-].[Zn+2] [Zn^2+, zinc chloride]
effect on MetAP1 activity [28]: showed the best activity

[Cl][Co][Cl] [Co^2+, cobalt chloride]
effect on MetAP1 activity [28]: stimulatory | stimulation of MetAP1 activity ([1]; MAS substrate): about 2 fold | stimulation of MetAP1 activity ([1]; MGAQFSKT substrate): 5 fold | metal concentration of maximum effect on MetAP2 [2]: 10 µM

[Cl][Fe][Cl] [Fe^2+, ferrous chloride]
effect on MetAP1 activity [28]: stimulatory
